Where two headings read alike, the source gives them in different places. No end group written: not given here.
Molecular target: T1, human TAS1R2-WT/TAS1R3-F514L (Homo sapiens, UniProt Q7RTX0+Q8TE23, F514L)
T1 construct: expressed in transfected cells; host or cells: HEK293T stably expressing Gα16gust44
T1 sequence (Q8TE23 20-839): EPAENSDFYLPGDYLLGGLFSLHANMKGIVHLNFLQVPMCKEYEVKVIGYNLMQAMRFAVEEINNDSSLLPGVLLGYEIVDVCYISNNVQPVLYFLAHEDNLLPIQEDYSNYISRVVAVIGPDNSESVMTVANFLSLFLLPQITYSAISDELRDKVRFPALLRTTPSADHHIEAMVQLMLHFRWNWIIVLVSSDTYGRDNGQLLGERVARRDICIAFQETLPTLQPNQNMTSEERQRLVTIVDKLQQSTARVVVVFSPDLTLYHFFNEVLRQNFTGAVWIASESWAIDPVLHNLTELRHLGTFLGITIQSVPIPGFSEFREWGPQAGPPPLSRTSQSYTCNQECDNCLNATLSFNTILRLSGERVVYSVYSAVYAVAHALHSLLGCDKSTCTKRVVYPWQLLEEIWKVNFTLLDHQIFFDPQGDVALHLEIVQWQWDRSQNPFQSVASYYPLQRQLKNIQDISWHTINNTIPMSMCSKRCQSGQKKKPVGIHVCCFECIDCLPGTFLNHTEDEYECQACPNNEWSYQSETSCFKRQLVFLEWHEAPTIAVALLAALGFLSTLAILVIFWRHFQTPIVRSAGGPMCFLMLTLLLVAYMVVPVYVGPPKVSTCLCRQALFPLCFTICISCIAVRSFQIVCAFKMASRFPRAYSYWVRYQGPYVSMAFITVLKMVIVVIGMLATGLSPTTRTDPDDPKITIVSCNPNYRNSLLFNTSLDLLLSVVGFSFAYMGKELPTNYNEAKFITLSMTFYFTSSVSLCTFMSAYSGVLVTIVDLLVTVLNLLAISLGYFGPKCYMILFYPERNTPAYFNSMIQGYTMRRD
T1 sequence (Q7RTX0 21-852 F514L): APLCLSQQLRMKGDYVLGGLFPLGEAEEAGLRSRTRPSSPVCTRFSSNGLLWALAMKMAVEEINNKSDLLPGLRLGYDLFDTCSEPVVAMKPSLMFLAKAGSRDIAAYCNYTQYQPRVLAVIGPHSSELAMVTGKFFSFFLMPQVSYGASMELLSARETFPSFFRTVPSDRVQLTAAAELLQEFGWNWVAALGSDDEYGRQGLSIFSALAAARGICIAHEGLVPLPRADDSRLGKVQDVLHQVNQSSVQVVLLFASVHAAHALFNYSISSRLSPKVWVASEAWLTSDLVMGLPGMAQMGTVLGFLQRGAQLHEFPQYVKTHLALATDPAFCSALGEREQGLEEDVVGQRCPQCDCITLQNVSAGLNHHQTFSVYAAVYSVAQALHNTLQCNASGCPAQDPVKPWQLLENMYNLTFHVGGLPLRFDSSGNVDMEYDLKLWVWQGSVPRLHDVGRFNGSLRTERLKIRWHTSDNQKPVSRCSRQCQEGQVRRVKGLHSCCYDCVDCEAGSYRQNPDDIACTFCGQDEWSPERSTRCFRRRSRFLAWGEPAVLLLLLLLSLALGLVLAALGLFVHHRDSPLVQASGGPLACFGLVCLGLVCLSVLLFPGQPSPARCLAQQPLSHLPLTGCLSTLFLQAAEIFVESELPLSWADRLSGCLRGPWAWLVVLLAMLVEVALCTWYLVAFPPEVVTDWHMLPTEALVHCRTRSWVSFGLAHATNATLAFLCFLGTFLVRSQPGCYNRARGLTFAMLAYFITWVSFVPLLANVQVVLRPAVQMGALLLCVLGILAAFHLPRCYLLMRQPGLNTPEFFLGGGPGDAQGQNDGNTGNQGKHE
Assay: Calcium mobilisation assay, TAS1R2-WT with TAS1R3 variant F514L
Type: cell-based
Conditions: for Max ΔF/F0: maximal signal amplitude
Excerpt: The coding sequences for TAS1R2 and TAS1R3 were commercially synthesised, and the human codon was optimised for expression in human cells. The coding sequences of human TAS1R2 and TAS1R3 were subcloned and inserted into the mammalian expression vectors pcDNA6/myc-HisA and pcDNA4/myc-HisA (Invitrogen; Thermo Fisher Scientific; Illkirch, France) between the EcoRI and NotI restriction sites, generating the plasmids pcDNA6-TAS1R2 and pcDNA4-TAS1R3, respectively. To increase protein expression in mammalian cells, an upstream start codon was used, which was a sequence called MAX, corresponding to the QBI SP163 element also described in pcDNA4-HisMax (Invitrogen; Thermo Fisher Scientific; Illkirch, France). To measure the expression level of the receptor by immunohistochemistry, we used the FLAG sequence ([…]) in the C-terminal position, which encodes the FLAG tag epitope. SNP variants of TAS1R2 and TAS1R3 were constructed based on […], respectively, using site-directed mutagenesis (Genewiz; Leipzig, Germany).
The HEK293T cells were kindly provided by Jay P. Slack (Givaudan Flavors Corporation; Cincinnati, OH, USA). HEK293T cells stably transfected with Gα16gust44 [43, 67] were seeded in poly-D-lysine-coated clear-bottom black 96-well plates (0.35 × 10^5 cells/well) in high-glucose DMEM supplemented with 2 mM GlutaMAX, 10% dialysed foetal bovine serum with penicillin/streptomycin and G418 (400 μg/mL) at 37 °C and 6.3% CO2 in a humidified atmosphere as previously reported. […] As a negative control, HEK293T cells were mock-transfected with the empty expression vector. After a further 24 h of incubation, the HEK293T cells were washed with C1 buffer (130 mM NaCl, 5 mM KCl, 10 mM HEPES pH 7.4 and 2 mM CaCl2). The 96-well plates containing the cells were then stimulated with sweet-tasting compounds. […] Different concentration ranges were tested depending on the sweet compound injected. The Ca^2+ changes were expressed as fractional changes in fluorescent light intensity: ΔF/F = (F − F0)/F0, where F was the fluorescent light intensity at each point, and F0 was the value of emitted fluorescent light prior to stimulus application. To calculate dose–response relationships, the changes in fluorescence upon stimulus application were averaged, mock-subtracted and baseline-corrected. The dose–response data obtained were adjusted using a 4-parameter logistic equation. The half-maximal effective concentrations (EC50 values) and maximal signal amplitudes were calculated using SigmaPlot software (version 15.0) (Systat Software; San Jose, CA, USA).
For in vitro calcium mobilisation assay performed on hTAS1R2-SNPs, hTAS1R3-SNPs and mTAS1R3-I60T, 6 to 7 concentrations were tested for each sweet compound, plus buffer alone. All concentration–receptor combinations were measured in duplicate, and each experiment was repeated at least 4 times (8 wells/concentration). Results were expressed for each concentration as ΔF/F mean ± SEM and represented as dose–response curves.

For CC1=CC(=O)NS(=O)(=O)O1 [Acesulfame K, acesulfame K], the “R1 = Variant EC50/WT EC50” value was 0.7, the “Max ΔF/F0” value was 0.14 ± 0.01 and the EC50 (read-out: EC50) was 442 ± 24 µM.

Molecule O=S(=O)(O)NC1CCCCC1 [Cyclamate, cyclamate] has an EC50 (read-out: EC50) of 1250 ± 30 µM.

C[C@H](CC[C@@H](O[C@@H]1O[C@H](CO[C@@H]2O[C@H](CO)[C@@H](O)[C@H](O)[C@H]2O)[C@@H](O)[C@H](O)[C@H]1O[C@@H]1O[C@H](CO)[C@@H](O)[C@H](O)[C@H]1O)C(C)(C)O)[C@H]1CC[C@@]2(C)[C@@H]3CC=C4[C@@H](CC[C@H](O[C@@H]5O[C@H](CO[C@@H]6O[C@H](CO)[C@@H](O)[C@H](O)[C@H]6O)[C@@H](O)[C@H](O)[C@H]5O)C4(C)C)[C@]3(C)[C@H](O)C[C@]12C [Mogroside V, mogroside V] was tested, and the “R1 = Variant EC50/WT EC50” value was 1.4, the “Max ΔF/F0” value was 0.79 ± 0.02 and the EC50 (read-out: EC50) was 44.7 ± 2.8 µM.

In the case of COc1ccc(CCC(=O)c2c(O)cc(O[C@@H]3O[C@H](CO)[C@@H](O)[C@H](O)[C@H]3O[C@@H]3O[C@@H](C)[C@H](O)[C@@H](O)[C@H]3O)cc2O)cc1O [NHDC, neohesperidin dihydrochalcone], the “R1 = Variant EC50/WT EC50” value is reported as 0.8, the “Max ΔF/F0” value is reported as 1.21 ± 0.08 and the EC50 (read-out: EC50) is reported as 37.9 ± 8.4 µM.

In the case of COC(=O)[C@H](Cc1ccccc1)NC(=O)[C@H](CC(=O)O)NCCC(C)(C)C [Neotame], the “R1 = Variant EC50/WT EC50” value is reported as 1.0, the “Max ΔF/F0” value is reported as 0.45 ± 0.01 and the EC50 (read-out: EC50) is reported as 1.23 ± 0.06 µM.

C=C(C)[C@@H]1CC=C(/C=N/O)CC1 [Perillartine, perillartine] was tested, and the “R1 = Variant EC50/WT EC50” value was 1.0, the “Max ΔF/F0” value was 1.40 ± 0.24 and the EC50 (read-out: EC50) was 13.9 ± 7.3 µM.

For C=C1C[C@@]23CC[C@H]4[C@@](C)(CCC[C@@]4(C)C(=O)O[C@@H]4O[C@H](CO)[C@@H](O)[C@H](O[C@@H]5O[C@H](CO)[C@@H](O)[C@H](O)[C@H]5O)[C@H]4O[C@@H]4O[C@H](CO)[C@@H](O)[C@H](O)[C@H]4O)[C@@H]2CC[C@]1(O[C@@H]1O[C@H](CO)[C@@H](O)[C@H](O[C@@H]2O[C@H](CO)[C@@H](O)[C@H](O)[C@H]2O)[C@H]1O[C@@H]1O[C@H](CO)[C@@H](O)[C@H](O)[C@H]1O)C3 [Rebaudioside M, rebaudioside M], the “R1 = Variant EC50/WT EC50” value was 0.8, the “Max ΔF/F0” value was 0.64 ± 0.02 and the EC50 (read-out: EC50) was 32.1 ± 2.5 µM.

OC[C@H]1O[C@H](O[C@]2(CCl)O[C@H](CCl)[C@@H](O)[C@@H]2O)[C@H](O)[C@@H](O)[C@H]1Cl [Sucralose] was tested, and the “R1 = Variant EC50/WT EC50” value was 1.3, the “Max ΔF/F0” value was 0.49 ± 0.01 and the EC50 (read-out: EC50) was 141 ± 3 µM.

“brazzein (QDKCKKVYENYPVSKCQLANQCNYDCKLDKHARSGECFYDEKRNLQCICDYCEY; ends and bridges not checked; cysteine pairing not given here; UniProt P56552 1-54, looked up) [sweet-tasting protein obtained by recombinant production using the yeast Pichia pastoris]” was tested, and the “R1 = Variant EC50/WT EC50” value was 0.4, the EC50 (brazzein) was 44.4 ± 6.4 µg/mL and the “Max ΔF/F0” value was 1.07 ± 0.04.

In the case of thaumatin, the “R1 = Variant EC50/WT EC50” value is reported as 0.9 and the “Max ΔF/F0” value is reported as 0.72 ± 0.04.

B1: thaumatin (protein)
chain: ATFEIVNRCSYTVWAAASKGDAALDAGGRQLNSGESWTINVEPGTKGGKIWARTDCYFDDSGSGICKTGDCGGLLRCKRFGRPPTTLAEFSLNQYGKDYIDISNIKGFNVPMDFSPTTRGCRGVRCAADIVGQCPAKLKAPGGGCNDACTVFQTSEYCCTTGKCGPTEYSRFFKRLCPDAFSYVLDKPTTVTCPGSSNYRVTFCPTA
modifications: Eight disulfides
notes: sweet-tasting plant protein, E957
B1 showed an EC50 (read-out: EC50) of 9.8 ± 1 µM.
